We go through 21 compounds from patent US6831199B1, “Pyrimidine compounds and derivatives thereof” (G. D. Searle & Co., priority 1995, dated 2004).

Test [1] has as its target T1, Human fibrinogen receptor (αIIbβ3) (Homo sapiens, UniProt P05106+P08514).
T1 construct: Human fibrinogen receptor (αIIbβ3) was purified from outdated platelets; from tissue; host or cells: outdated human platelets
Description: Purified IIb/IIIa receptor assay (solid phase receptor assay, competition with biotinylated vitronectin). The format is binding. The conditions noted are these: read-out: IIb/IIIa IC50. In outline: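 Competition format: 1 nM biotinylated vitronectin plus test compound (highest 1.0×10^−4 M), 2 h at room temperature on wells coated with platelet-derived αIIbβ3. Buffer was TBS containing 1.0 mM Ca, Mg, Mn, pH 7.4. HRP anti-biotin readout at 450 nm; normalized to maximum binding, four-parameter curve fit.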

The target in test [2] is T2, Human vitronectin receptor (αvβ3) (Homo sapiens, UniProt P05106+P06756).
T2 construct: Human vitronectin receptor (αvβ3) was purified from human placenta; from tissue; host or cells: human placenta
Description: Vitronectin adhesion assay (solid phase receptor assay, competition with biotinylated vitronectin). The format is binding. The conditions noted are these: read-out: AvB3 IC50. In outline: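 Purified human αvβ3 coated overnight at 4 °C in TBS with 1.0 mM Ca++, Mg++, Mn++, pH 7.4; compounds (top final 1.0×10^−4 M) competed with 1 nM biotinylated vitronectin for 2 h at room temperature. Bound ligand detected by HRP anti-biotin/OPD at A450; values normalized to no-competitor controls, four-parameter curve fit.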

The next test concerns platelet rich plasma. Description: Human platelet rich plasma assay (ADP induced platelet aggregation). The format is cell-based. The conditions noted are these: Homo sapiens, Platelet, ADP induced platelet aggregation in human platelet rich plasma; read-out: Human PRP. In outline:
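Citrated platelet-rich plasma from aspirin-free healthy human donors was stirred at 37 °C and preincubated with compound for 1 min. Aggregation was then triggered with ADP (added as a 200 uM solution) and recorded photometrically for 3 min. Dose–response curves were built from % inhibition of the maximal saline-control response.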

pIC50: −log10 of the molar value. Counter-ions that a name gives are not always drawn.

In the case of `N=C(N)Nc1cccc(C(=O)NCC(=O)NC(CCS(=O)(=O)c2ccccc2C(=O)O)CC(=O)O)c1` (racemic) [60(C), (±)2-[3-[[2-[[[3-[(aminoiminomethyl)amino]phenyl]carbonyl]amino]acetyl]amino]-4-carboxybutyl]sulfonyl]benzoic acid, trifluoroacetate], the pIC50 was 7.79 in test [1], 9.14 in test [2] and below 3.70 in the test with platelet rich plasma.
Regarding `N=C(N)Nc1cccc(C(=O)NCC(=O)NC(CC(=O)O)c2ccccc2)c1` (racemic) [Example 4, (±)β-[[2-[[[3-[(aminoiminomethyl)amino]phenyl]carbonyl]amino]acetyl]amino]benzene-propanoic acid, trifluoroacetate salt], the pIC50 in test [1] was 6.33; in test [2], 8.50; in the test on platelet rich plasma, below 3.70.
For `N=C(N)Nc1cc(C(=O)NCC(=O)NC(CC(=O)O)c2cccnc2)c2ccccc2c1` (racemic) [Example 8, (±)β-[[2-[[[3-[(aminoiminomethyl)amino]naphthalen-1-yl]carbonyl]amino]acetyl]amino]pyridine-3-propanoic acid, bis(trifluoroacetate)salt], the pIC50 in test [1] was 8.01; in test [2] it was 9.16; with platelet rich plasma it was 4.13.
Regarding `O=C(O)CC(NC(=O)CNC(=O)c1cccc(NC2=NCCN2)c1)c1cccnc1` (racemic) [Example 10, (±)β-[[2-[[[3-[(4,5-dihydro-1H-imidazol-2-yl)amino]phenyl]carbonyl]amino]acetyl]amino]pyridine-3-propanoic acid, bis(trifluoroacetate)salt], the results for the pIC50 (in test [1]; in test [2]; in the test with platelet rich plasma) were 7.26, 9.04 and below 3.70, respectively.
For `O=C(O)CC(NC(=O)CNC(=O)c1cccc(NC2=NCCCCC2)c1)c1cccnc1` (racemic) [Example 12, (±)β-[[2-[[[3-[(3,4,5,6-tetrahydro-2H-azepin-7-yl)amino]phenyl]carbonyl]amino]acetyl]amino]pyridine-3-propanoic acid, bis(trifluoroacetate)salt], in that order: 6.23, 8.96 and below 3.70.
As for `O=C(O)CC(NC(=O)CNC(=O)c1cccc(NC2=NCCCCC2)c1)c1ccc2c(c1)OCO2` (racemic) [Example 14, (±)β-[[2-[[[3-[(3,4,5,6-tetrahydro-2H-azepin-7-yl)amino]phenyl]carbonyl]amino]acetyl]amino]-1,3-benzodioxole-5-propanoic acid, TFA salt], the pIC50 is 6.86 in test [1], 8.79 in test [2] and below 3.70 in the test on platelet rich plasma.
In the case of `O=C(O)CC(NC(=O)CNC(=O)c1cccc(NC2=NCCCCC2)c1)c1ccccc1` (racemic) [Example 15, (±)β-[[2-[[[3-[(3,4,5,6-tetrahydro-2H-azepin-7-yl)amino]phenyl]carbonyl]amino]acetyl]amino]benzenepropanoic acid, trifluoroacetate salt], the pIC50 is 5.42 in test [1], 7.99 in test [2] and below 3.70 in the test with platelet rich plasma.
On to `N=C(NCc1ccccc1)Nc1cccc(C(=O)NCC(=O)NC(CC(=O)O)c2cccnc2)c1` (racemic) [Example 24, (±)β-[[2-[[[3-[[imino[(phenylmethyl)amino]methyl]amino]phenyl]carbonyl]amino]acetyl]amino]pyridine-3-propanoic acid, bis(trifluoroacetate)salt], for which the pIC50 in test [1] was 7.23; in test [2] it was 9.04; with platelet rich plasma it was below 3.70.
In the case of `N=C(N)Nc1cccc(C(=O)NCC(=O)NC(CC(=O)O)c2cc(C(F)(F)F)cc(C(F)(F)F)c2)c1` (racemic) [Example 36, (±)β-[[2-[[[3-[(aminoiminomethyl)amino]phenyl]carbonyl]amino]acetyl]amino]-3,5-bis(trifluoromethyl)benzenepropanoic acid, trifluoroacetate salt], the figures for the pIC50 (in test [1]; in test [2]; in the test on platelet rich plasma) were 5.80, 7.84 and below 3.70, respectively.
On the same counts, the results for `O=C(O)CC(NC(=O)CNC(=O)c1cccc(NC(=O)NCc2ccccc2)c1)c1cccnc1` (racemic) [Example 47, (±)β-[[2-[[[3-[[[(phenylmethyl)amino]carbonyl]amino]phenyl]carbonyl]amino]acetyl]amino]pyridine-3-propanoic acid, hydrochloride salt] are 5.37, 9.07 and below 3.70.
On the same counts, the results for `N=C(N)Nc1cccc(C(=O)NCC(=O)NC(CC(=O)O)c2ccoc2)c1` (racemic) [Example 52, (±)β-[[2-[[[3-[(aminoiminomethyl)amino]phenyl]carbonyl]amino]acetyl]amino]furan-3-propanoic acid, trifluoroacetate salt] are 6.86, 8.44 and below 3.70.
For `N=C(N)Nc1cccc(C(=O)NCC(=O)NC(CC(=O)O)c2ccc3ccccc3c2)c1` (racemic) [Example 56, (±)β-[[2-[[[3-[(aminoiminomethyl)amino]phenyl]carbonyl]amino]acetyl]amino]naphthalene-2-propanoic acid, trifluoroacetate salt], the pIC50 was 7.19 in test [1], 8.51 in test [2] and below 3.70 with platelet rich plasma.
On the same counts, the results for `N=C(N)Nc1cccc(C(=O)NCC(=O)NC(CC(=O)O)c2ccsc2)c1` (racemic) [Example 59, (±)β-[[2-[[[3-[(aminoiminomethyl)amino]phenyl]carbonyl]amino]acetyl]amino]thiophene-3-propanoic acid, trifluoroacetate salt] are 6.76, 8.63 and below 3.70.
For `N=C(N)Nc1cccc(C(=O)NCC(=O)NC(CC(=O)O)c2cccs2)c1` (racemic) [Example 61, (±)β-[[2-[[[3-[(aminoiminomethyl)amino]phenyl]carbonyl]amino]acetyl]amino]thiophene-2-propanoic acid, trifluoroacetate salt], the pIC50 in test [1] is 6.72; in test [2], 8.75; with platelet rich plasma, below 3.70.
On the same counts, the results for `Cc1ccc(SCCC(CC(=O)O)NC(=O)CNC(=O)c2cccc(NC(=N)N)c2)cc1` (racemic) [Example 66, (±)3-[[2-[[[3-[(aminoiminomethyl)amino]phenyl]carbonyl]amino]acetyl]amino]-5-[(4-methylphenyl)thio]pentanoic acid, trifluoroacetate salt] are 7.13, 8.84 and below 4.00.
For `Cc1ccc(S(=O)(=O)CCC(CC(=O)O)NC(=O)CNC(=O)c2cccc(NC(=N)N)c2)cc1` (racemic) [Example 67, (±)3-[[2-[[[3-[(aminoiminomethyl)amino]phenyl]carbonyl]amino]acetyl]amino]-5-[(4-methylphenyl)sulfonyl]pentanoic acid, trifluoroacetate salt], in that order: 7.03, 8.69 and below 3.70.
On to `Cc1ccc(C(=O)NCC(=O)NC(CC(=O)O)c2cccnc2)cc1NC(=N)N` (racemic) [Example 83, (±)β-[[2-[[[3-[(aminoiminomethyl)amino]-4-methylphenyl]carbonyl]amino]acetyl]amino]pyridine-3-propanoic acid, bis(trifluoroacetate)salt], for which the pIC50 in test [1] was 7.01; in test [2] it was 8.47; with platelet rich plasma, below 3.70.
With `Cc1ccc(O)c(C(CC(=O)O)NC(=O)CNC(=O)c2cccc(NC(=N)N)c2)c1` (racemic) [Example 88, (±)β-[[2-[[[3-[(aminoiminomethyl)amino]phenyl]carbonyl]amino]acetyl]amino]-2-hydroxy-5-methylbenzenepropanoic acid, trifluoroacetate salt], the pIC50 in test [1] was 6.02; in test [2], 8.07; with platelet rich plasma, below 3.70.
For `O=C(O)CC(NC(=O)CNC(=O)c1cccc(NC2=NCCC2)c1)c1cccnc1` (stereo not drawn) [Example 17, β-[[2-[[[3-[(3,4-dihydro-2H-pyrrol-5-yl)amino]phenyl]carbonyl]amino]acetyl]amino]pyridine-3-propanoic acid, bis(trifluoroacetate)salt], the pIC50 in test [1] is 6.86; in test [2], 8.58; in the test on platelet rich plasma, below 3.70.
Take `C#C[C@H](CC(=O)O)NC(=O)CNC(=O)c1cccc(NC2=NCCCCC2)c1` [Example 30, βS-[[2-[[[3-[(3,4,5,6-tetrahydro-2H-azepin-7-yl)amino]phenyl]carbonyl]amino]acetyl]amino]-4-pentynoic acid, trifluoroacetate salt]: the pIC50 in test [1] was 6.37; in test [2] it was 8.76; with platelet rich plasma, below 3.70.
For the compound `C#C[C@@H](CC(=O)O)NC(=O)CNC(=O)c1cccc(NC(=N)N)c1` [Example 43, 3R-[[2-[[[(3-[(aminoiminomethyl)amino]phenyl]carbonyl]amino]acetyl]amino]-4-pentynoic acid, hydrochloride salt], the pIC50 in test [1] is 5.79; in test [2], 7.55; in the test on platelet rich plasma, below 3.70.
